Data: patent US20250170127A1, “RE-SENSITIZING MULTIDRUG-RESISTANT (MDR) GRAM-NEGATIVE BACTERIA TO COLISTIN USING IONOPHORES” (The Regents of the University of Colorado, a body corporate, priority 2022, published 2025)

Columns and labels:
HeLa cells = experiment: in vitro; format: cell-based, human
Experimental: These 10 compounds were tested for their MICs and minimum re-sensitizing concentrations (MRCs) in the presence colistin at 2 μg/mL in E. coli AR-0493. […] To evaluate their toxicity in mammalian cells, the present inventors treated human epithelial adenocarcinoma HeLa cells with each compound at a wide range of concentrations.
(§1) To evaluate the mammalian toxicity of these analogs, Applicants tested them in cell viability assay using human cervical adenocarcinoma HeLa cells. Their respective half maximal growth inhibition concentration (GI50) was calculated using KaleidaGraph. The selectivity index (SI) for each compound was also calculated as the ratio of their GI50 and MRC. […] Therefore, Applicants selected two bisanilino analogs, 7l and 7m, that bear chlorines at the meta- and para-positions, respectively, of the phenyl groups for further characterization studies. […]. […] Their mammalian toxicities were also evaluated, and SIs calculated. […] Applicants we next explored the scope of analogs 71 and 7m their colistin-potentiating activity in 8 different MDR Gram negative bacteria with diverse genetic backgrounds and resistance mechanisms (Table 7). All strains were obtained from CDC and FDA Antibiotic Resistance Bank. For example, E. coli AR-0493 and K. pneumoniae AR-0497 carry the plasmid that contains the most prevalent mcr-1 gene. E. coli AR-0538, Salmonella Typhimurium AR-0539 and AR-0635 contain the mcr-2, 3, and 4 genes, respectively. These genes encode the phosphoethanolamine transferase, which was originated form the chromosome of A. baumannii, such as AR-0310. […]. A. baumannii AR-0310 appears more sensitive to these two compounds and the MICs of colistin was reduced to 0.25 μg/mL.
(§2) General Methods. MDR strains E. coli AR-0493, AR-0346, and AR-0538, Salmonella Enteritidis AR-0496, Salmonella Typhimurium AR-0635, K. pneumoniae AR-0497, A. baumannii AR-0300 and AR-0310 were all obtained from the CDC & FDA Antibiotic Resistance Isolate Bank. E. coli K-12 was a gift from the Copley lab (Department of MCD Biology, University of Colorado Boulder). HeLa cells were purchased from the ATCC. All bacterial strains were grown on trypticase soy agar supplemented with 5% sheep blood (BAP). Bacteria were then cultured in Luria-Bertani (LB) medium at 35° C. until they achieve the log phase before screening or antimicrobial testing using CAMHB media. MIC, MRC, and checkerboard analyses and mammalian growth inhibition analyses in Hela cells were performed as described previously. More details are given in Supporting information.

E. coli AR-0493 [1] = experiment: MIC, CLSI broth microdilution, substance alone; format: cell-based
Experimental: A MDR E. coli strain AR-0493 (a.k.a., ATCC BAA-3170) was obtained from the CDC and FDA Antibiotic Resistance Bank and used for the initial screen. […] Considering the difficulties on the discovery of novel antimicrobial reagents against Gram-negative bacteria, we chose to screen the fragment-based library of 3,200 compounds from TimTec (Tampa, FL). […] The screen used a modified broth microdilution assay.
These 10 compounds were tested for their MICs and minimum re-sensitizing concentrations (MRCs) in the presence colistin at 2 μg/mL in E. coli AR-0493. […] To evaluate their toxicity in mammalian cells, the present inventors treated human epithelial adenocarcinoma HeLa cells with each compound at a wide range of concentrations. […]
as §2

E. coli AR-0493 [2] = experiment: Minimum re-sensitizing concentration (MRC) in the presence of colistin; format: cell-based; conditions: in the presence of 2 μg/mL colistin, E. coli AR-0493
Experimental: These 10 compounds were tested for their MICs and minimum re-sensitizing concentrations (MRCs) in the presence colistin at 2 μg/mL in E. coli AR-0493.
The present inventors further conducted MRC screens of selected compounds from groups 2-5 in AR-0493. Compound were tested against AR-0493 with compound X+2 μg/mL Colistin.
All compounds were tested for their respective minimum resensitizing concentrations (MRCs) for colistin against E. coli. AR0493, a MDR strain from CDC and FDA Antibiotic Resistance Bank. […] For the symmetrical bisanilino series, 7a-p, electron-donating alkyl and alkoxy groups (entries 7a-g, Table 5) at various positions of the phenyl rings were investigated. […] Three asymmetric bisanilino analogs (7q-s, Table 5) were synthesized based on the SARs of the monoanilino analogs 8a-p (vide infra).
as §2

P. aeruginosa AR-0257 = experiment: Colistin MIC in the absence or presence of RMA compound; format: cell-based; conditions: for fold reduction of colistin MIC: 1 μg/mL of compound; for Colistin MIC (+ compound): in the presence of 1 μg/mL of compound indicated
Experimental: as §1

[3] = system: Salmonella Typhimurium AR-0539; experiment: as above; format: cell-based; conditions: for Colistin MIC (+ compound): in the presence of 1 μg/mL of compound indicated, S. Typhimurium AR-0539
Experimental: as §1

P. aeruginosa AR-0239 = experiment: as above; format: cell-based; conditions: for fold reduction of colistin MIC: 1 μg/mL of compound; for Colistin MIC (+ compound): in the presence of 1 μg/mL of compound indicated
Experimental: as §1

[4] = system: Salmonella Typhimurium AR-0635; experiment: as above; format: cell-based; conditions: for Colistin MIC (+ compound): in the presence of 1 μg/mL of compound indicated, S. Typhimurium AR-0635; for Colistin MIC: colistin alone
From the text: (§3) To investigate the scope of the colistin-potentiation effect of compound 3, the present inventors screened a panel of MDR Gram-negative bacteria obtained from the CDC and FDA Antibiotic Resistance Bank. These include a variety of Enterobacteriaceae spp., such as E. coli AR-0346 and AR-0538, K. pneumoniae AR-0497, Salmonella Enteritidis AR-0496, and Salmonella Typhimurium AR-0635. These strains all express the mcr genes (e.g., mcr-1, mcr-2, and mcr-4) and are resistant to colistin with its MICs of 8-16 μg/mL (Table 2). […] The only exception is Salmonella Typhimurium AR-0635, which expresses mcr-4 gene. […]. […]. Furthermore, the present inventors also tested the activity of colistin in the presence or absence of 1 μg/mL compound 3 in a wild-type E. coli K-12. […] The MICs of compound 3 in all these strains were >64 μg/mL, the highest concentration tested.
as §1, §2

E. coli AR-0538 = experiment: as above; format: cell-based; conditions: for Colistin MIC (+ compound): in the presence of 1 μg/mL of compound indicated, E. coli AR-0538; for Colistin MIC: colistin alone, E. coli AR-0538, mcr-2
From the text: as §3, §1, §2

A. baumannii AR-0310 = experiment: as above; format: cell-based; conditions: for Colistin MIC (+ compound): in the presence of 1 μg/mL of compound indicated; for Colistin MIC: colistin alone
From the text: as §3, §1, §2

K. pneumoniae AR-0497 = experiment: as above; format: cell-based; conditions: for Colistin MIC (+ compound): in the presence of 1 μg/mL of compound indicated, K. pneumoniae AR-0497; for Colistin MIC: colistin alone, K. pneumoniae AR-0497, mcr-1
From the text: as §3, §1, §2

E. coli AR-0493 [5] = experiment: as above; format: cell-based; conditions: for Colistin MIC (+ compound): in the presence of 1 μg/mL of compound indicated, E. coli AR-0493; for Colistin MIC: colistin alone, E. coli AR-0493, mcr-1
From the text: as §3, §1, §2

mitochondria = conditions: previously reported; in vitro and in mice; cited from earlier work
[6] = system: MDR Gram-negative bacteria; experiment: MICs across a panel of MDR Gram-negative bacteria (summary statements); format: cell-based; conditions: colistin alone
From the text: as §3, §1, §2

P. aeruginosa AR-0768 = experiment: Colistin MIC in the absence or presence of RMA compound; format: cell-based; conditions: colistin alone
From the text: as §3

E. coli AR-0349 = experiment: MICs of a panel of 9 antibiotics with and without compound 3; format: cell-based
E. coli K-12 = experiment: Colistin MIC in the absence or presence of RMA compound; format: cell-based; conditions: colistin alone; wild-type E. coli K-12
From the text: as §3, §2

[7] = system: Salmonella Enteritidis AR-0496; experiment: as above; format: cell-based; conditions: colistin alone; Salmonella Enteritidis AR-0496, mcr-1
From the text: as §3, §2

A. baumannii AR-0300 = experiment: as above; format: cell-based; conditions: colistin alone
From the text: as §3, §2

E. coli AR-0346 = experiment: as above; format: cell-based; conditions: colistin alone; E. coli AR-0346, mcr-1
From the text: as §3, §2

## Clc1cccc(Nc2nc3nonc3nc2Nc2cccc(Cl)c2)c1 [Compound 7l]
HeLa cells
  GI50: 1.1 µg/mL
E. coli AR-0493 [1]
  MIC: >64 µg/mL
E. coli AR-0493 [2]
  MRC (minimum re-sensitizing concentration): 0.25 µg/mL
P. aeruginosa AR-0257
  fold reduction of colistin MIC: 4 folds
  Colistin MIC (+ compound): 2 µg/mL
[3]
  Colistin MIC (+ compound): 1 µg/mL
P. aeruginosa AR-0239
  fold reduction of colistin MIC: 4 folds
  Colistin MIC (+ compound): 1 µg/mL
[4]
  Colistin MIC (+ compound): 1 µg/mL
E. coli AR-0538
  Colistin MIC (+ compound): 1 µg/mL
A. baumannii AR-0310
  Colistin MIC (+ compound): 0.25 µg/mL
K. pneumoniae AR-0497
  Colistin MIC (+ compound): 1 µg/mL
E. coli AR-0493 [5]
  Colistin MIC (+ compound): 1 µg/mL

## Clc1ccc(Nc2nc3nonc3nc2Nc2ccc(Cl)cc2)cc1 [Compound 7m]
HeLa cells
  GI50: 2.8 µg/mL
E. coli AR-0493 [1]
  MIC: >64 µg/mL
E. coli AR-0493 [2]
  MRC (minimum re-sensitizing concentration): 0.5 µg/mL
P. aeruginosa AR-0257
  fold reduction of colistin MIC: 4 folds
  Colistin MIC (+ compound): 2 µg/mL
[3]
  Colistin MIC (+ compound): 2 µg/mL
P. aeruginosa AR-0239
  fold reduction of colistin MIC: 4 folds
  Colistin MIC (+ compound): 1 µg/mL
[4]
  Colistin MIC (+ compound): 1 µg/mL
E. coli AR-0538
  Colistin MIC (+ compound): 2 µg/mL
A. baumannii AR-0310
  Colistin MIC (+ compound): 0.25 µg/mL
K. pneumoniae AR-0497
  Colistin MIC (+ compound): 1 µg/mL
E. coli AR-0493 [5]
  Colistin MIC (+ compound): 1 µg/mL

## FC(F)(F)Oc1ccc(Nc2nc3nonc3nc2Nc2ccc(OC(F)(F)F)cc2)cc1 [Compound 7p]
HeLa cells
  GI50: 5.7 µg/mL
mitochondria
  mitochondrial uncoupler activity: poor uncoupler
E. coli AR-0493 [1]
  MIC: >64 µg/mL
E. coli AR-0493 [2]; listed as 57p
  MRC (minimum re-sensitizing concentration): 0.25 µg/mL

## Cc1cccc(Nc2nc3nonc3nc2Nc2cccc(OC(F)(F)F)c2)c1 [Compound 7r]
HeLa cells
  GI50: 12 µg/mL
E. coli AR-0493 [1]
  MIC: >64 µg/mL
E. coli AR-0493 [2]
  MRC (minimum re-sensitizing concentration): 0.5 µg/mL

## Oc1nc2nonc2nc1Nc1cccc(OC(F)(F)F)c1 [Compound 8o]
HeLa cells
  GI50: 24 µg/mL
E. coli AR-0493 [1]
  MIC: >64 µg/mL
E. coli AR-0493 [2]
  MRC (minimum re-sensitizing concentration): 4 µg/mL

## Oc1nc2nonc2nc1Nc1ccc(OC(F)(F)F)cc1 [Compound 8p]
mitochondria
  mitochondrial uncoupler activity: one of the most potent uncouplers

## Colistin [reference compound]
[6]; 8 MDR Gram negative strains of Table 7
  Colistin MIC: 4 to 32 µg/mL
[6]; mcr-expressing Enterobacteriaceae strains of Table 2
  Colistin MIC: 8 to 16 µg/mL
P. aeruginosa AR-0768
  Colistin MIC: 16 µg/mL
E. coli AR-0349; CLSI 2021, M100, Ed 31
  INT (S-R interpretation): R
E. coli AR-0349; antibiotic alone, multidrug-resistant E. coli
  MIC: 16 µg/mL
E. coli AR-0349; by 1 μg/mL of compound 3
  fold of potentiation: 16 fold
E. coli AR-0349; in the presence of 1 μg/mL of compound 3
  MIC (+3): 1 µg/mL
E. coli AR-0493 [1]
  MIC: 16 µg/mL
E. coli K-12
  Colistin MIC: 0.25 µg/mL
[7]
  Colistin MIC: 16 µg/mL
A. baumannii AR-0300
  Colistin MIC: 8 µg/mL
E. coli AR-0346
  Colistin MIC: 8 µg/mL
P. aeruginosa AR-0257; colistin alone
  Colistin MIC: 8 µg/mL
[3]; colistin alone, S. Typhimurium AR-0539, mcr-3
  Colistin MIC: 8 µg/mL
P. aeruginosa AR-0239; colistin alone
  Colistin MIC: 4 µg/mL
[4]; S. Typhimurium AR-0635, mcr-4, Table 7
  Colistin MIC: 32 µg/mL
[4]; Salmonella Typhimurium AR-0635, mcr-4, Table 2
  Colistin MIC: 16 µg/mL
E. coli AR-0538; Table 2
  Colistin MIC: 8 µg/mL
E. coli AR-0538; Table 7
  Colistin MIC: 8 µg/mL
A. baumannii AR-0310; Table 2
  Colistin MIC: 16 µg/mL
A. baumannii AR-0310; Table 7
  Colistin MIC: 32 µg/mL
K. pneumoniae AR-0497; Table 2
  Colistin MIC: 8 µg/mL
K. pneumoniae AR-0497; Table 7
  Colistin MIC: 8 µg/mL
E. coli AR-0493 [5]; Table 2
  Colistin MIC: 16 µg/mL
E. coli AR-0493 [5]; Table 7
  Colistin MIC: 8 µg/mL
